22 molecules from US9181230B2, “Morpholine compounds and uses thereof” (Hoffmann-La Roche Inc., priority 2013, dated 2015) can be followed below.

One may read the Ki as the equilibrium dissociation constant of an inhibitor or competing ligand from its target. Low values mean higher affinity, high ones lower affinity.

Structures can show the parent of a compound that is named as a salt.

Sequence of rat TAAR1 (Q923Y9 whole entry): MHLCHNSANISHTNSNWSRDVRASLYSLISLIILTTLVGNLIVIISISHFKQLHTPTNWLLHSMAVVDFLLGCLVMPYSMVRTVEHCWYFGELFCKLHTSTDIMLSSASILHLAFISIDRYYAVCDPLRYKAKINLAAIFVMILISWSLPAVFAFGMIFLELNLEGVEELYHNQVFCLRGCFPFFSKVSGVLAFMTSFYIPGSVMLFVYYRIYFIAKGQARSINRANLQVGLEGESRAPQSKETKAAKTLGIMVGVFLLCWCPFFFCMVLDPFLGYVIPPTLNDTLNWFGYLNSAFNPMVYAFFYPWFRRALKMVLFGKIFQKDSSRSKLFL
Sequence of mouse TAAR1 (Q923Y8 whole entry): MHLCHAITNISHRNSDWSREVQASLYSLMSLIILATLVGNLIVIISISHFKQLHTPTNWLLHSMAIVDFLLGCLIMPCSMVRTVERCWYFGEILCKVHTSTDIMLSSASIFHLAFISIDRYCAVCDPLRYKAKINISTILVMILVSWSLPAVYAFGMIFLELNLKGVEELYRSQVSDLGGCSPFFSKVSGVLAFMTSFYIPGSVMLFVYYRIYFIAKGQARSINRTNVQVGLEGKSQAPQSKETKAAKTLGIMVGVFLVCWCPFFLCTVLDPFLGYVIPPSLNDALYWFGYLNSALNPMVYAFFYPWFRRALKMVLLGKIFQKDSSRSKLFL

The target in one assay is mouse TAAR1 (Mus musculus (Mouse), UniProt Q923Y8). As to the kind of experiment: Radioligand binding assay on mouse TAAR1. Conditions: mouse TAAR1, membranes of HEK-293 cells, first value of the cell pair mouse/rat. As for the experimental part:
(§1) For the construction of expression plasmids the coding sequences of human, rat and mouse TAAR 1 were amplified from genomic DNA essentially as described by Lindemann et al.. The Expand High Fidelity PCR System (Roche Diagnostics) was used with 1.5 mM Mg^2+ and purified PCR products were cloned into pCR2.1-TOPO cloning vector (Invitrogen) following the instructions of the manufacturer. PCR products were subcloned into the pIRESneo2 vector (BD Clontech, Palo Alto, Calif.), and expression vectors were sequence verified before introduction in cell lines.
(§2) HEK293 cells (ATCC # CRL-1573) were cultured essentially as described by Lindemann et al. (2005). For the generation of stably transfected cell lines HEK293 cells were transfected with the pIRESneo2 expression plasmids containing the TAAR coding sequences (described above) with Lipofectamine 2000 (Invitrogen) according to the instructions of the manufacturer, and 24 hrs post transfection the culture medium was supplemented with 1 mg/ml G418 (Sigma, Buchs, Switzerland). After a culture period of about 10 d clones were isolated, expanded and tested for responsiveness to trace amines (all compounds purchased from Sigma) with the cAMP Biotrak Enzyme immunoassay (EIA) System (Amersham) following the non-acetylation EIA procedure provided by the manufacturer.
(A) Radioligand Binding Assay on Mouse TAAR1
(§3) Membrane Preparation and Radioligand Binding.
(§4) HEK-293 cells stably expressing mouse TAAR1 were maintained at 37° C. and 5% CO2 in DMEM high glucose medium, containing fetal calf serum (10%, heat inactivated for 30 min at 56° C.), penicillin/streptomycin (1%), and 375 μg/ml geneticin (Gibco). Cells were released from culture flasks using trypsin/EDTA, harvested, washed twice with ice-cold PBS (without Ca^2+ and Mg^2+), pelleted at 1,000 rpm for 5 min at 4° C., frozen and stored at −80° C. Frozen pellets were suspended in 20 ml HEPES-NaOH (20 mM, pH 7.4) containing 10 mM EDTA and homogenized with a Polytron (PT 6000, Kinematica) at 14,000 rpm for 20 s. The homogenate was centrifuged at 48,000×g for 30 min at 4° C. Subsequently, the supernatant was removed and discarded, and the pellet resuspended in 20 ml HEPES-NaOH (20 mM, pH 7.4) containing 0.1 mM EDTA using the Polytron (20 s at 14,000 rpm). This procedure was repeated and the final pellet resuspended in HEPES-NaOH containing 0.1 mM EDTA and homogenized using the Polytron. Typically, aliquots of 2 ml membrane portions were stored at −80° C. With each new membrane batch the dissociation constant (Kd) was determined via a saturation curve. […] Nonspecific binding was defined as the amount of ^3[H]-(S)-4-[(ethyl-phenyl-amino)-methyl]-4,5-dihydro-oxazol-2-ylamine bound in the presence of 10 μM unlabeled ligand. All compounds were tested at a broad range of concentrations (10 pM to 10 μM) in duplicates. […] The 96 deep well plates were incubated for 1 hr at 4° C. Incubations were terminated by rapid filtration through Unifilter-96 plates (Packard Instrument Company) and glass filters GF/C (Perkin Elmer) presoaked for 1 hr in polyethylenimine (0.3%) and washed 3 times with 1 ml of cold binding buffer. After addition of 45 μl of Microscint 40 (PerkinElmer) the Unifilter-96 plate was sealed and after 1 hr the ratioactivity counted using a TopCount Microplate Scintillation Counter (Packard Instrument Company).
`N#Cc1ccc(-c2cc(-c3ccc(C4CNCCO4)cc3)n[nH]2)cc1` (centres unmarked) [Example 6, 4-(3-(4-(Morpholin-2-yl)phenyl)-1H-pyrazol-5-yl)benzonitrile hydrochloride] returned an inhibition constant Ki of 0.0019 µM.
Same read-out and setting: under `Clc1cccc(-c2cc(-c3ccc([C@H]4CNCCO4)cc3)n[nH]2)c1` [Example 9, (S)-2-(4-(5-(3-Chlorophenyl)-1H-pyrazol-3-yl)phenyl)morpholine hydrochloride] stands 0.0004 µM; under `N#Cc1cccc(-c2cc(-c3ccc(C4CNCCO4)cc3)n[nH]2)c1` (centres unmarked) [Example 12, 3-[5-(4-Morpholin-2-yl-phenyl)-2H-pyrazol-3-yl]-benzonitrile hydrochloride], 0.0005 µM; under `Fc1ccc(-c2nnc(-c3ccc([C@H]4CNCCO4)cc3)o2)cc1` [Example 17, (S)-2-(4-(5-(4-Fluorophenyl)-1,3,4-oxadiazol-2-yl)phenyl)morpholine hydrochloride], 0.0032 µM.
The same measure, in the same setting: to `Fc1ccc(-n2cc(-c3ccc([C@H]4CNCCO4)cc3)cn2)cc1` [Example 19, (S)-2-(4-(1-(4-Fluorophenyl)-1H-pyrazol-4-yl)phenyl)morpholine hydrochloride] belongs 0.0015 µM; to `Fc1ccc(-c2nc(-c3ccc([C@H]4CNCCO4)cc3)n[nH]2)cc1` [Example 20, (S)-2-(4-(5-(4-Fluorophenyl)-1H-1,2,4-triazol-3-yl)phenyl)morpholine hydrochloride], 0.0012 µM; to `O=C(Nc1n[nH]c2cc(C3CNCCO3)ccc12)c1ccc(F)cc1` (centres unmarked) [Example 21, 4-Fluoro-N-(6-(morpholin-2-yl)-1H-indazol-3-yl)benzamide hydrochloride], 0.0617 µM.
Same read-out and setting: under `Fc1ccc([C@@H]2COC(c3ccc([C@H]4CNCCO4)cc3)=N2)cc1` [Example 22, (S)-2-{4-[(R)-4-(4-Fluoro-phenyl)-4,5-dihydro-oxazol-2-yl]-phenyl}-morpholine] stands 0.0318 µM; under `Fc1ccc(-c2nc(-c3ccc([C@@H]4CNCCO4)cc3)n[nH]2)cc1` [Example 23, (R)-2-(4-(5-(4-Fluorophenyl)-1H-1,2,4-triazol-3-yl)phenyl)morpholine hydrochloride], 0.0015 µM.
For `c1cc([C@H]2CNCCO2)ccc1-c1cc(C2CCOCC2)[nH]n1` [Example 24, (S)-2-(4-(5-(Tetrahydro-2H-pyran-4-yl)-1H-pyrazol-3-yl)phenyl)morpholine hydrochloride], the inhibition constant Ki is over 20 µM.
The same measure, in the same setting: to `Fc1ccc(-n2cc(-c3ccc([C@@H]4CNCCO4)cc3)cn2)cc1` [Example 26, (R)-2-(4-(1-(4-Fluorophenyl)-1H-pyrazol-4-yl)phenyl)morpholine hydrochloride] belongs 0.0006 µM; to `N#Cc1ccc(-c2cc(-c3ccc([C@H]4CNCCO4)cc3)n[nH]2)cc1` [Example 28, (S)-4-(3-(4-(Morpholin-2-yl)phenyl)-1H-pyrazol-5-yl)benzonitrile hydrochloride], 0.001 µM; to `Fc1ccc(-c2cc(-c3ccc([C@H]4CNCCO4)cc3)n[nH]2)cc1` [Example 29, (S)-2-(4-(5-(4-Fluorophenyl)-1H-pyrazol-3-yl)phenyl)morpholine hydrochloride], 0.0007 µM.
Still for that read-out and setting: under `Fc1ccc(-c2cc(-c3ccc([C@@H]4CNCCO4)cc3)n[nH]2)cc1` [Example 31, (R)-2-(4-(5-(4-Fluorophenyl)-1H-pyrazol-3-yl)phenyl)morpholine hydrochloride] stands 0.001 µM.
Consider `N#Cc1ccc(-c2cc(-c3ccc([C@@H]4CNCCO4)cc3)n[nH]2)cc1` [Example 32, (R)-4-(3-(4-(Morpholin-2-yl)phenyl)-1H-pyrazol-5-yl)benzonitrile hydrochloride], for which the Ki was determined as 0.0019 µM.
Same read-out and setting: under `Fc1ccc(-c2nnc(-c3ccc([C@@H]4CNCCO4)cc3)o2)cc1` [Example 34, (R)-2-(4-(5-(4-Fluorophenyl)-1,3,4-oxadiazol-2-yl)phenyl)morpholine hydrochloride] stands 0.004 µM; under `Clc1ccc(-c2cc(-c3ccc([C@H]4CNCCO4)cc3)n[nH]2)cn1` [Example 37, (S)-2-{4-[5-(6-Chloro-pyridin-3-yl)-1H-pyrazol-3-yl]-phenyl}-morpholine hydrochloride], 0.004 µM; under `Clc1ccc(-c2cc(-c3ccc([C@@H]4CNCCO4)cc3)n[nH]2)cn1` [Example 38, (R)-2-{4-[5-(6-Chloro-pyridin-3-yl)-1H-pyrazol-3-yl]-phenyl}-morpholine hydrochloride], 0.0027 µM.
The same measure, in the same setting: to `Fc1ccc(-c2cc(-c3ccc([C@H]4CNCCO4)cc3F)n[nH]2)cc1` [Example 40, (S)-2-(3-Fluoro-4-(5-(4-fluorophenyl)-1H-pyrazol-3-yl)phenyl)morpholine hydrochloride] belongs 0.0012 µM.
Still for that read-out and setting: to `Fc1ccc(-c2cc(-c3ccc([C@@H]4CNCCO4)cc3F)n[nH]2)cc1` [Example 41, (R)-2-(3-Fluoro-4-(5-(4-fluorophenyl)-1H-pyrazol-3-yl)phenyl)morpholine hydrochloride] belongs 0.0011 µM; to `FC(F)(F)c1cnc2[nH]c3ccc([C@H]4CNCCO4)cc3c2c1` [Example 46, (S)-2-(3-(Trifluoromethyl)-9H-pyrido[2,3-b]indol-6-yl)morpholine hydrochloride], 0.0023 µM; to `Clc1cnc2[nH]c3ccc([C@H]4CNCCO4)cc3c2c1` [Example 47, (S)-2-(3-Chloro-9H-pyrido[2,3-b]indol-6-yl)morpholine hydrochloride], 0.0032 µM.

The target of another assay is rat TAAR1 (Rattus norvegicus (Rat), UniProt Q923Y9). As to the kind of experiment: Radioligand binding assay on rat TAAR1. The note with it: rat TAAR1, membranes of HEK-293 cells, second value of the cell pair mouse/rat. As for the experimental part:
as §1, §2
(B) Radioligand Binding Assay on Rat TAAR1
as §3
as §4, with “rat” for “mouse”
For `N#Cc1ccc(-c2cc(-c3ccc(C4CNCCO4)cc3)n[nH]2)cc1` (centres unmarked) [Example 6, 4-(3-(4-(Morpholin-2-yl)phenyl)-1H-pyrazol-5-yl)benzonitrile hydrochloride], the Ki was 0.0335 µM.
Still for that read-out and setting: to `Clc1cccc(-c2cc(-c3ccc([C@H]4CNCCO4)cc3)n[nH]2)c1` [Example 9, (S)-2-(4-(5-(3-Chlorophenyl)-1H-pyrazol-3-yl)phenyl)morpholine hydrochloride] belongs 0.0021 µM.
On the same count and under the same terms, under `N#Cc1cccc(-c2cc(-c3ccc(C4CNCCO4)cc3)n[nH]2)c1` (centres unmarked) [Example 12, 3-[5-(4-Morpholin-2-yl-phenyl)-2H-pyrazol-3-yl]-benzonitrile hydrochloride] stands 0.0615 µM; under `Fc1ccc(-c2nnc(-c3ccc([C@H]4CNCCO4)cc3)o2)cc1` [Example 17, (S)-2-(4-(5-(4-Fluorophenyl)-1,3,4-oxadiazol-2-yl)phenyl)morpholine hydrochloride], 0.229 µM.
Turning to `Fc1ccc(-n2cc(-c3ccc([C@H]4CNCCO4)cc3)cn2)cc1` [Example 19, (S)-2-(4-(1-(4-Fluorophenyl)-1H-pyrazol-4-yl)phenyl)morpholine hydrochloride], the Ki turned out to be 0.0669 µM.
On the same count and under the same terms, to `Fc1ccc(-c2nc(-c3ccc([C@H]4CNCCO4)cc3)n[nH]2)cc1` [Example 20, (S)-2-(4-(5-(4-Fluorophenyl)-1H-1,2,4-triazol-3-yl)phenyl)morpholine hydrochloride] belongs 0.0779 µM; to `O=C(Nc1n[nH]c2cc(C3CNCCO3)ccc12)c1ccc(F)cc1` (centres unmarked) [Example 21, 4-Fluoro-N-(6-(morpholin-2-yl)-1H-indazol-3-yl)benzamide hydrochloride], 0.895 µM.
On the same count and under the same terms, to `Fc1ccc([C@@H]2COC(c3ccc([C@H]4CNCCO4)cc3)=N2)cc1` [Example 22, (S)-2-{4-[(R)-4-(4-Fluoro-phenyl)-4,5-dihydro-oxazol-2-yl]-phenyl}-morpholine] belongs 1.51 µM; to `Fc1ccc(-c2nc(-c3ccc([C@@H]4CNCCO4)cc3)n[nH]2)cc1` [Example 23, (R)-2-(4-(5-(4-Fluorophenyl)-1H-1,2,4-triazol-3-yl)phenyl)morpholine hydrochloride], 0.0196 µM; to `c1cc([C@H]2CNCCO2)ccc1-c1cc(C2CCOCC2)[nH]n1` [Example 24, (S)-2-(4-(5-(Tetrahydro-2H-pyran-4-yl)-1H-pyrazol-3-yl)phenyl)morpholine hydrochloride], 0.0722 µM.
Same read-out and setting: to `Fc1ccc(-n2cc(-c3ccc([C@@H]4CNCCO4)cc3)cn2)cc1` [Example 26, (R)-2-(4-(1-(4-Fluorophenyl)-1H-pyrazol-4-yl)phenyl)morpholine hydrochloride] belongs 0.0122 µM; to `N#Cc1ccc(-c2cc(-c3ccc([C@H]4CNCCO4)cc3)n[nH]2)cc1` [Example 28, (S)-4-(3-(4-(Morpholin-2-yl)phenyl)-1H-pyrazol-5-yl)benzonitrile hydrochloride], 0.0168 µM.
On to `Fc1ccc(-c2cc(-c3ccc([C@H]4CNCCO4)cc3)n[nH]2)cc1` [Example 29, (S)-2-(4-(5-(4-Fluorophenyl)-1H-pyrazol-3-yl)phenyl)morpholine hydrochloride], for which the inhibitory constant (Ki) stood at 0.0044 µM.
Still for that read-out and setting: under `Fc1ccc(-c2cc(-c3ccc([C@@H]4CNCCO4)cc3)n[nH]2)cc1` [Example 31, (R)-2-(4-(5-(4-Fluorophenyl)-1H-pyrazol-3-yl)phenyl)morpholine hydrochloride] stands 0.0036 µM; under `N#Cc1ccc(-c2cc(-c3ccc([C@@H]4CNCCO4)cc3)n[nH]2)cc1` [Example 32, (R)-4-(3-(4-(Morpholin-2-yl)phenyl)-1H-pyrazol-5-yl)benzonitrile hydrochloride], 0.0154 µM; under `Fc1ccc(-c2nnc(-c3ccc([C@@H]4CNCCO4)cc3)o2)cc1` [Example 34, (R)-2-(4-(5-(4-Fluorophenyl)-1,3,4-oxadiazol-2-yl)phenyl)morpholine hydrochloride], 0.156 µM.
On the same count and under the same terms, under `Clc1ccc(-c2cc(-c3ccc([C@H]4CNCCO4)cc3)n[nH]2)cn1` [Example 37, (S)-2-{4-[5-(6-Chloro-pyridin-3-yl)-1H-pyrazol-3-yl]-phenyl}-morpholine hydrochloride] stands 0.304 µM; under `Clc1ccc(-c2cc(-c3ccc([C@@H]4CNCCO4)cc3)n[nH]2)cn1` [Example 38, (R)-2-{4-[5-(6-Chloro-pyridin-3-yl)-1H-pyrazol-3-yl]-phenyl}-morpholine hydrochloride], 0.0257 µM; under `Fc1ccc(-c2cc(-c3ccc([C@H]4CNCCO4)cc3F)n[nH]2)cc1` [Example 40, (S)-2-(3-Fluoro-4-(5-(4-fluorophenyl)-1H-pyrazol-3-yl)phenyl)morpholine hydrochloride], 0.0155 µM.
On to `Fc1ccc(-c2cc(-c3ccc([C@@H]4CNCCO4)cc3F)n[nH]2)cc1` [Example 41, (R)-2-(3-Fluoro-4-(5-(4-fluorophenyl)-1H-pyrazol-3-yl)phenyl)morpholine hydrochloride], for which affinity was put at a Ki of 0.0043 µM.
On the same count and under the same terms, to `FC(F)(F)c1cnc2[nH]c3ccc([C@H]4CNCCO4)cc3c2c1` [Example 46, (S)-2-(3-(Trifluoromethyl)-9H-pyrido[2,3-b]indol-6-yl)morpholine hydrochloride] belongs 0.0698 µM; to `Clc1cnc2[nH]c3ccc([C@H]4CNCCO4)cc3c2c1` [Example 47, (S)-2-(3-Chloro-9H-pyrido[2,3-b]indol-6-yl)morpholine hydrochloride], 0.075 µM.
